In paper PMC9090415, “Discovery of small molecule inhibitors of Plasmodium falciparum apicoplast DNA polymerase” (Journal of Enzyme Inhibition and Medicinal Chemistry, 2022):

Molecular target: P. falciparum apicoplast DNA polymerase (Pf-apPOL) (Plasmodium falciparum, UniProt Q8ILY1)
Assay: Fluorescence-based high-throughput DNA polymerase assay (molecular beacon), primary screen and dose-response
Assay type: biochemical
Settings: for DNA Pol: 90 min, 10 µM
Procedure: The HT assay employs a molecular beacon, a stem-loop DNA template with a Cy3 dye and the Black Hole Quencher on the 3′ and 5′ ends of the DNA, respectively. Pf-apPOL concentration is based on a calculated absorptivity of ε280 = 56750 M^−1 cm^−1. Reactions were carried out at 25 °C, using Corning 3575 […] (well-volume, 20 µL). Assays testing for compound inhibition composed of reaction buffer (pH 7.9 in 50 mM potassium acetate, 20 mM Tris-acetate and 10 mM magnesium acetate), Pf-apPOL (20 nM), DNA substrate (20 nM), dNTPs (6 µM), and compound (10 µM in DMSO). The DNA and nucleotide substrates (dNTPs) were at concentrations of 20 nM and 6 µM, respectively, in the assay. Pf-apPOL was incubated in the reaction buffer with dNTPs and the compound of interest (10 µM, in the assay) at 25 °C for 10 min. The DNA substrate was then added and the reaction was allowed to proceed for 90 min at 25 °C.
Each assay plate contained 16 negative controls (no Pf-apPOL, DMSO present) and 16 positive controls (Pf-apPOL present, no DMSO). The fluorescence of each well was determined using a BioTek Synergy Neo fluorescence plate reader using excitation and emission wavelengths of 555 and 570 nm, respectively.
In the above, Min is the average of fluorescence emission of the negative controls (substrate only), Max the average fluorescence emission from the positive controls (enzyme + substrate), and Test the emission from the assays in the presence of compounds (enzyme + compound + substrates). […] […] The IC50 of each compound was determined using Equation (2): (2) IC50= Vmax/(1+ (I/IC50)^n)
In the above, n measures cooperativity, with n > 1 indicating synergistic binding of more than a single molecule of the compound.
To identify apPOL inhibitors we utilised our previously developed high-throughput DNA polymerase assay. The HT assay is based on a molecular beacon DNA template that forms a stem-loop with a Cy3 dye and the Black Hole Quencher on the 3′ and 5′ ends of the DNA, respectively. DNA polymerase activity extends an annealed primer through the stem region, displacing the fluorophore from the quencher, thereby increasing its fluorescence (Figure 1(A)). The assay accurately recapitulates the kinetic behaviour of apPOL, as measured through more conventional low-throughput gel-based assays. The Z′ factor for the assay described here was 0.9 across all plates (data not shown).
Figure 1. High-throughput screening. (A) The fluorescent-based DNA polymerase assay used to screen the compound libraries. The DNA template strand is a hairpin loop with a primer annealed to the loop. The 3’ end of the primer is 11 bases away from the 6 bp duplex. Strand displacement activity of the DNA polymerase separates the Cy3 dye from the Black hole quencher leading to an increase in fluorescent signal. (B) The high-throughput assay workflow. The DNA polymerase is incubated with […] compound for 10 min prior to addition of the hairpin substrate. The reaction is quenched at 3 different time points and the fluorescent signal is measured and % inhibition is determined using the provided equation.

P. falciparum apicoplast DNA polymerase (Pf-apPOL), sequence (Q8ILY1 entry or part of it): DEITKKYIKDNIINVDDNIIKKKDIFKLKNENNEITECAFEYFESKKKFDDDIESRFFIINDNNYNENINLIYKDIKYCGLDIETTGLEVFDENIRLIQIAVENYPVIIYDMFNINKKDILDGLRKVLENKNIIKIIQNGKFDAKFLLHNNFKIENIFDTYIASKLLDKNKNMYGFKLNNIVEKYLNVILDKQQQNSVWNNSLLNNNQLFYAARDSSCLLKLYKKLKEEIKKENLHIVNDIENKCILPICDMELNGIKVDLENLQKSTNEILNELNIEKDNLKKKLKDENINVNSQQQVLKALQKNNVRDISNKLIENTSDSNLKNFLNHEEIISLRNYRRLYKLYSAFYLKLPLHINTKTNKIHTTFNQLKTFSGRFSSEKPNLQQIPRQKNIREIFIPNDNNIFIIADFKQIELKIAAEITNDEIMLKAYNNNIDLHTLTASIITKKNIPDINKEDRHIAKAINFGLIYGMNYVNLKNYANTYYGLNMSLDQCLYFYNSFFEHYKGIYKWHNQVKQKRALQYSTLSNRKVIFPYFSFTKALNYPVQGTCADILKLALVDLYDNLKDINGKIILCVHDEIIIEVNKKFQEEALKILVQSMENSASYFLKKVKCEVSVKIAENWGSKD

CCOc1nc2cccc(C(=O)OC(C)OC(=O)OC3CCCCC3)c2n1Cc1ccc(-c2ccccc2-c2nn[nH]n2)cc1 (stereo not shown) [Molecule 94, CCOc1nc2c(n1Cc1ccc(cc1)c1ccccc1c1n[nH]nn1)c(ccc2)C(=O)OC(OC(=O)OC1CCCCC1)C]
DNA Pol ('DNA Pol' of the 186 hits list (screen value)): 88 | % inhibition Apo pol 10' (DRC-1, conc 2.5): 6.803% | % inhibition Apo pol 10' (DRC-1, conc 5): 16.1591% | % inhibition Apo pol 10' (DRC-1, conc 10): 73.0339% | % inhibition Apo pol 10' (DRC-1, conc 20): 91.1% | % inhibition Apo pol 10' (DRC-1, conc 40): 96.7244% | % inhibition Apo pol 10' (DRC-1, conc 80): 98.4846% | % inhibition Apol 90' (DRC-1, conc 2.5): 4.826% | % inhibition Apol 90' (DRC-1, conc 5): 16.7075% | % inhibition Apol 90' (DRC-1, conc 10): 71.8878% | % inhibition Apol 90' (DRC-1, conc 20): 89.9299% | % inhibition Apol 90' (DRC-1, conc 40): 93.9408% | % inhibition Apol 90' (DRC-1, conc 80): 94.456% | % inhibition apPOL 180' (DRC-1, conc 2.5): 1.0757% | % inhibition apPOL 180' (DRC-1, conc 5): 11.5491% | % inhibition apPOL 180' (DRC-1, conc 10): 64.6519% | % inhibition apPOL 180' (DRC-1, conc 20): 87.4687% | % inhibition apPOL 180' (DRC-1, conc 40): 92.7393% | % inhibition apPOL 180' (DRC-1, conc 80): 93.1007% | % inhibition Apo pol 5' (DRC-2, conc 2.5): 8% | % inhibition Apo pol 5' (DRC-2, conc 5): 14% | % inhibition Apo pol 5' (DRC-2, conc 10): 46% | % inhibition Apo pol 5' (DRC-2, conc 20): 55% | % inhibition Apo pol 5' (DRC-2, conc 40): 61% | % inhibition Apo pol 5' (DRC-2, conc 80): 61% | % inhibition Apo pol 5' (DRC-2, concentration 5): 14% | % inhibition Apo pol 5' (DRC-2, concentration 40): 61% | % inhibition Apo pol 5' (DRC-2, concentration 80): 61% | % inhibition Apol 40' (DRC-2, conc 2.5): 11% | % inhibition Apol 40' (DRC-2, conc 5): 19% | % inhibition Apol 40' (DRC-2, conc 10): 59% | % inhibition Apol 40' (DRC-2, conc 20): 71% | % inhibition Apol 40' (DRC-2, conc 40): 74% | % inhibition Apol 40' (DRC-2, conc 80): 74% | % inhibition Apol 40' (DRC-2, concentration 5): 19% | % inhibition Apol 40' (DRC-2, concentration 10): 59% | % inhibition Apol 40' (DRC-2, concentration 40): 74% | % inhibition Apol 40' (DRC-2, concentration 80): 74% | % inhibition ApPOL 90' (DRC-2, conc 2.5): 9% | % inhibition ApPOL 90' (DRC-2, conc 5): 19% | % inhibition ApPOL 90' (DRC-2, conc 10): 59% | % inhibition ApPOL 90' (DRC-2, conc 20): 73% | % inhibition ApPOL 90' (DRC-2, conc 40): 77% | % inhibition ApPOL 90' (DRC-2, conc 80): 77% | % inhibition ApPOL 90' (DRC-2, concentration 5): 19% | % inhibition ApPOL 90' (DRC-2, concentration 10): 59% | % inhibition ApPOL 90' (DRC-2, concentration 40): 77% | % inhibition ApPOL 90' (DRC-2, concentration 80): 77% | % inhibition apPOL 180' (DRC-2, conc 2.5): 4.45% | % inhibition apPOL 180' (DRC-2, conc 5): 14% | % inhibition apPOL 180' (DRC-2, conc 10): 53% | % inhibition apPOL 180' (DRC-2, conc 20): 69% | % inhibition apPOL 180' (DRC-2, conc 40): 75% | % inhibition apPOL 180' (DRC-2, conc 80): 75% | % inhibition apPOL 180' (DRC-2, concentration 5): 14% | % inhibition apPOL 180' (DRC-2, concentration 40): 75% | % inhibition apPOL 180' (DRC-2, concentration 80): 75% | DNA Pol (primary screen value, "DNA Pol"): 88

Cc1cc(C)c(O)c(/N=C/c2cc([N+](=O)[O-])cc(Br)c2O)c1 [KU0046272]
% inhibition Apo pol 10' (DRC-1, concentration 2.5): 3.169% | % inhibition Apo pol 10' (DRC-1, concentration 5): -1.228% | % inhibition Apo pol 10' (DRC-1, concentration 10): 12.3955% | % inhibition Apo pol 10' (DRC-1, concentration 20): 36.9804% | % inhibition Apo pol 10' (DRC-1, concentration 40): 60.3951% | % inhibition Apo pol 10' (DRC-1, concentration 80): 90.16% | % inhibition Apol 90' (DRC-1, concentration 2.5): -6.623% | % inhibition Apol 90' (DRC-1, concentration 5): -11.6285% | % inhibition Apol 90' (DRC-1, concentration 10): 2.689% | % inhibition Apol 90' (DRC-1, concentration 20): 23.1885% | % inhibition Apol 90' (DRC-1, concentration 40): 44.716% | % inhibition Apol 90' (DRC-1, concentration 80): 85.7846% | % inhibition apPOL 180' (DRC-1, concentration 2.5): -11.4225% | % inhibition apPOL 180' (DRC-1, concentration 5): -16.1751% | % inhibition apPOL 180' (DRC-1, concentration 10): -3.511% | % inhibition apPOL 180' (DRC-1, concentration 20): 14.6468% | % inhibition apPOL 180' (DRC-1, concentration 40): 35.3485% | % inhibition apPOL 180' (DRC-1, concentration 80): 85.8895% | % inhibition Apo pol 5' (DRC-2, concentration 2.5): 7% | % inhibition Apo pol 5' (DRC-2, concentration 5): 6% | % inhibition Apo pol 5' (DRC-2, concentration 10): 4.64% | % inhibition Apo pol 5' (DRC-2, concentration 20): 17% | % inhibition Apo pol 5' (DRC-2, concentration 40): 41% | % inhibition Apo pol 5' (DRC-2, concentration 80): 54% | % inhibition Apol 40' (DRC-2, concentration 2.5): 2% | % inhibition Apol 40' (DRC-2, concentration 5): 4.73% | % inhibition Apol 40' (DRC-2, concentration 10): 4% | % inhibition Apol 40' (DRC-2, concentration 20): 19% | % inhibition Apol 40' (DRC-2, concentration 40): 47% | % inhibition Apol 40' (DRC-2, concentration 80): 72% | % inhibition ApPOL 90' (DRC-2, concentration 2.5): 1% | % inhibition ApPOL 90' (DRC-2, concentration 5): 3.45% | % inhibition ApPOL 90' (DRC-2, concentration 10): 2.43% | % inhibition ApPOL 90' (DRC-2, concentration 20): 20% | % inhibition ApPOL 90' (DRC-2, concentration 40): 47% | % inhibition ApPOL 90' (DRC-2, concentration 80): 75% | % inhibition apPOL 180' (DRC-2, concentration 2.5): -0.688% | % inhibition apPOL 180' (DRC-2, concentration 5): 1.3% | % inhibition apPOL 180' (DRC-2, concentration 10): 1.29% | % inhibition apPOL 180' (DRC-2, concentration 20): 17% | % inhibition apPOL 180' (DRC-2, concentration 40): 40% | % inhibition apPOL 180' (DRC-2, concentration 80): 75% | % inhibition Apo pol 5' (conc. 20, DRC-2): 17% | % inhibition apPOL 180' (conc. 20, DRC-2): 17% | % inhibition Apol 40' (conc. 40, DRC-2): 47% | % inhibition ApPOL 90' (conc. 40, DRC-2): 47% | % inhibition ApPOL 90' (conc. 80, DRC-2): 75% | % inhibition apPOL 180' (conc. 80, DRC-2): 75% | DNA Pol (primary screen value by plate and well): 45 | DNA Pol (primary screen value of the 186 hits, unit not given): 45

COc1ccc(NC(=O)Cn2ccc3c(=O)[nH]ccc32)cc1 [Molecule 13]
IC50 (supplemental file 2, sheet IC50 nontoxic compounds, Pf-apPOL): 7.09 µM
